Assay results: patent publication US20080194585A1, “Fungicidal Pyrazine Derivatives” (priority 2005, published 2008)
Marks after values point to notes of the source that are not given here.

Assays:
[1] = tested on: Puccinia recondita f. sp. tritici; assay: Test K: wheat leaf rust, preventive spray on wheat seedlings
Botrytis cinerea = assay: Test E: tomato botrytis, preventive spray on tomato seedlings
Rhizoctonia oryzae = assay: Test G: turf brown patch, preventive spray on creeping bent grass seedlings
Description: (the causal agent of turf brown patch) and incubated in a saturated atmosphere at 27° C. for 24 h, and then moved to a growth chamber at 27° C. for 5 days, after which disease ratings were made.

Phytophthora infestans = assay: whole plant or invertebrate; type: in vivo
[2] = tested on: Erysiphe graminis f. sp. tritici; assay: Test L: wheat powdery mildew, preventive spray on wheat seedlings
Septoria nodorum = assay: Test H: wheat glum blotch, preventive spray on wheat seedlings
Description: (the causal agent of wheat glum blotch) and incubated in a saturated atmosphere at 20° C. for 48 h, and then moved to a growth chamber at 22° C. for 5 days, after which disease ratings were made.

[3] = tested on: Colletotrichum orbiculare; assay: Test B: cucumber Colletotrichum anthracnose, preventive spray on cucumber seedlings
Septoria tritici = assay: Test J: wheat leaf blotch, preventive spray on wheat seedlings; type: in vivo
Description: A dash (-) indicates no test results.

Sclerotinia sclerotiorum = assay: Test C: cucumber white mold, preventive spray on cucumber seedlings
Pythium aphanidermatum = assay: Test A: bluegrass pythium blight, preventive spray on bluegrass seedlings
Plasmopara viticola = assay: Test D: grape downy mildew, spray after inoculation of grape seedlings; type: in vivo
Description: Upon removal, disease ratings were made. […] A dash (-) indicates no test results.

| SMILES | Test K disease control rating ([1]; 200 ppm) | Test E disease control rating (Botrytis cinerea; 200 ppm) | Test G disease control rating (Rhizoctonia oryzae; 200 ppm) | Test F disease control rating (Phytophthora infestans; 200 ppm) | Test L disease control rating ([2]; 200 ppm) | Test H disease control rating (Septoria nodorum; 200 ppm) | Test B disease control rating ([3]; 200 ppm) | Test J disease control rating (Septoria tritici; 200 ppm) | Test C disease control rating (Sclerotinia sclerotiorum; 200 ppm) | Test A disease control rating (Pythium aphanidermatum; 200 ppm) | Test D disease control rating (Plasmopara viticola; 200 ppm) | other results |
| --- | --- | --- | --- | --- | --- | --- | --- | --- | --- | --- | --- | --- |
| CC(C)Cn1c(-c2ccccc2C(F)(F)F)c(Cl)nc(-n2cccn2)c1=O [compound 141] | 60% | 92% | 96% | 0% | 79% | 73% | 96% | 99% | 63% | 0% | 12% |  |
| CC(C)Cn1c(-c2ccc(F)cc2)c(Cl)nc(-n2cncn2)c1=O [compound 142] | 27% | 100% | 0% | 0% | 81% | 100% | 16% | 100% | 0% | 64% | 4% |  |
| CC(C)Cn1c(-c2ccc(F)cc2)c(Cl)nc(-n2cccn2)c1=O [compound 143] | 68% | 99% | 47% | 0% | 0% | 0% | 0% | 100% | 0% | 0% | 12% |  |
| CC(C)Cn1c(-c2ccc(C#N)cc2)c(Cl)nc(-n2cncn2)c1=O [compound 144] | 0% | 0% | 0% | 0% | 0% | 0% | 0% | 89% | 0% | 0% | 12% |  |
| CC(C)Cn1c(-c2ccc(C#N)cc2)c(Cl)nc(-n2cccn2)c1=O [compound 145] | 68% | 99% | 40% | 0% | 0% | 0% | 0% | 100% | 49% | 0% | 20% |  |
| O=c1c(-n2cncn2)nc(Cl)c(-c2c(F)cccc2F)n1-c1ccccc1 [compound 162] | 27% | 85% | 47% | 0% | 0% | 0% | 9% | 100% | 0% | 0% | 8% |  |
| CCC(C)Cn1c(-c2ccc(F)cc2Cl)c(Cl)nc(-n2cccn2)c1=O (stereo not shown) [compound 164] | 100% | 100% | 74% | 0% | 100% | 100% | 100% | 100% | 91% | 0% | 44% |  |
| CC(C)Cn1c(-c2ccccc2F)c(Cl)nc(-n2cccn2)c1=O [compound 174] |  |  |  |  |  |  |  |  |  |  |  | Test K disease control rating ([1]; 40 ppm (*)): 99* %; Test E disease control rating (Botrytis cinerea; 40 ppm (*)): 100* %; Test G disease control rating (Rhizoctonia oryzae; 40 ppm (*)): 62* %; Test F disease control rating (Phytophthora infestans; 40 ppm (*)): 0* %; Test L disease control rating ([2]; 40 ppm (*)): 98* %; Test H disease control rating (Septoria nodorum; 40 ppm (*)): 99* %; Test B disease control rating ([3]; 40 ppm (*)): 0* %; Test J disease control rating (Septoria tritici; 40 ppm (*)): 100* %; Test C disease control rating (Sclerotinia sclerotiorum; 40 ppm (*)): 0* %; Test A disease control rating (Pythium aphanidermatum; 40 ppm (*)): 0* %; Test D disease control rating (Plasmopara viticola; 40 ppm (*)): 15* % |
| CC(C)Cn1c(-c2ccccc2F)c(Cl)nc(-n2cncn2)c1=O [compound 175] | 60% | 99% | 91% | 0% | 92% | 99% | 0% | 98% | 0% | 0% | 12% |  |
| COc1ccccc1-c1c(Cl)nc(-n2cccn2)c(=O)n1CC(C)C [compound 176] | 0% | 99% | 56% | 0% | 0% | 73% | 0% | 94% | 0% | 0% | 4% |  |
| CC(C)(C)CCn1c(-c2c(F)cccc2F)c(Cl)nc(-n2cccn2)c1=O [compound 182] | 85% | 91% | 31% | 0% | 85% | 0% | 0% | 100% | 0% | 0% | 0% |  |
| Cn1c(-c2c(F)cccc2F)c(Cl)nc(-n2cccn2)c1=O [compound 185] |  |  |  |  |  |  |  |  |  |  |  | Test K disease control rating ([1]; 40 ppm (*)): 0* %; Test E disease control rating (Botrytis cinerea; 40 ppm (*)): 81* %; Test G disease control rating (Rhizoctonia oryzae; 40 ppm (*)): 0* %; Test F disease control rating (Phytophthora infestans; 40 ppm (*)): 0* %; Test L disease control rating ([2]; 40 ppm (*)): 90* %; Test H disease control rating (Septoria nodorum; 40 ppm (*)): 0* %; Test B disease control rating ([3]; 40 ppm (*)): 0* %; Test J disease control rating (Septoria tritici; 40 ppm (*)): 8* %; Test C disease control rating (Sclerotinia sclerotiorum; 40 ppm (*)): 0* %; Test A disease control rating (Pythium aphanidermatum; 40 ppm (*)): 0* %; Test D disease control rating (Plasmopara viticola; 40 ppm (*)): 8* % |
| CSCC(C)n1c(-c2c(F)cccc2F)c(Cl)nc(-n2cccn2)c1=O (stereo not shown) [compound 198] |  |  |  |  |  |  |  |  |  |  |  | Test K disease control rating ([1]; 40 ppm (*)): 0* %; Test E disease control rating (Botrytis cinerea; 40 ppm (*)): 0* %; Test G disease control rating (Rhizoctonia oryzae; 40 ppm (*)): 0* %; Test F disease control rating (Phytophthora infestans; 40 ppm (*)): 0* %; Test L disease control rating ([2]; 40 ppm (*)): 0* %; Test H disease control rating (Septoria nodorum; 40 ppm (*)): 0* %; Test B disease control rating ([3]; 40 ppm (*)): 0* %; Test J disease control rating (Septoria tritici; 40 ppm (*)): 0* %; Test C disease control rating (Sclerotinia sclerotiorum; 40 ppm (*)): 0* %; Test A disease control rating (Pythium aphanidermatum; 40 ppm (*)): 0* %; Test D disease control rating (Plasmopara viticola; 40 ppm (*)): 8* % |
| CSCC(C)n1c(-c2c(F)cccc2F)c(Cl)nc(-n2cncn2)c1=O (stereo not shown) [compound 199] |  |  |  |  |  |  |  |  |  |  |  | Test K disease control rating ([1]; 40 ppm (*)): 0* %; Test E disease control rating (Botrytis cinerea; 40 ppm (*)): 0* %; Test G disease control rating (Rhizoctonia oryzae; 40 ppm (*)): 0* %; Test F disease control rating (Phytophthora infestans; 40 ppm (*)): 0* %; Test L disease control rating ([2]; 40 ppm (*)): 0* %; Test H disease control rating (Septoria nodorum; 40 ppm (*)): 0* %; Test B disease control rating ([3]; 40 ppm (*)): 0* %; Test J disease control rating (Septoria tritici; 40 ppm (*)): 1* %; Test C disease control rating (Sclerotinia sclerotiorum; 40 ppm (*)): 0* %; Test A disease control rating (Pythium aphanidermatum; 40 ppm (*)): 0* %; Test D disease control rating (Plasmopara viticola; 40 ppm (*)): 4* % |
